Drawing on US20230210999A1, “TARGETED PROTEASE DEGRADATION (TED) PLATFORM” (EUBULUS BIOTHERAPEUTICS INC., priority 2020, published 2023), this text covers IC50 for twelve compounds.

pIC50: −log10 of the molar value.

The subject of one assay is NCIH82 cells. In words: Cell proliferation experiment, NCI-H82. To be noted: Homo sapiens, NCI-H82, NCI-H82 cells; read-out: Inhibitory activity IC50 on NCI-H82. Format: cell-based, human. In outline:
(§1)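 Alamar blue fluorescence after 72 h of compound exposure; IC50 from 4-parameter fit (Min, Max, Slope). Cells passaged ≥2 times, log-phase, 96-well, duplicate wells, 5-fold serial dilutions.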
What is called pIC50 is the negative decadic logarithm of the IC50, by convention in mol/L. For `NC(=O)c1ccccc1Nc1nc(Nc2ccc(C3CCN(C(=O)N[C@H]4CC[C@@H](NCCC#Cc5cccc6c5CN(C5CCC(=O)NC5=O)C6=O)CC4)CC3)cc2)ncc1Cl` (stereo partly drawn) [UB-181183], the pIC50 is 7.00 to 8.00.
Still for that read-out and setting: the value for `NC(=O)c1ccccc1Nc1nc(Nc2ccc(C3CCN(C(=O)NC4CCN(C5CN(CCC#Cc6ccc7c(c6)CN(C6CCC(=O)NC6=O)C7=O)C5)CC4)CC3)cc2)ncc1Cl` (stereo not drawn) [UB-181199] was over 8.00; that for `NC(=O)c1ccccc1Nc1nc(Nc2ccc(N3CCN(C(=O)N[C@H]4CC[C@@H](NCC(O)CC#Cc5ccc6c(c5)CN(C5CCC(=O)NC5=O)C6=O)CC4)CC3)cc2)ncc1Cl` (stereo partly drawn) [UB-181203] was 6.00 to 7.00; that for `NC(=O)c1ccccc1Nc1nc(Nc2ccc(C3CCN(C(=O)N[C@H]4CC[C@@H](NCCCCOCCC#Cc5ccc6c(c5)CN(C5CCC(=O)NC5=O)C6=O)CC4)CC3)cc2)ncc1Cl` (stereo partly drawn) [UB-181205] was 6.00 to 7.00.

A further assay concerns MDA-MB-231 cells. Description: Cell proliferation experiment, MDA-MB-231. The assay is classed as cell-based, human. To be noted: Homo sapiens, MDA-MB-231, MDA-MB-231 cells; read-out: Inhibitory activity IC50 on MDA-MB-231. As to the method:
(§2) Reagents: RPMI-1640 medium, McCoy's 5A medium, IMDM medium, MEM medium, L-15 medium, fetal bovine serum. Penicillin-Streptomycin double antibody, trypsin, etc., 2-mercaptoethanol, NEAA, pyruvate, etc.
(§3) The cells were cultured in conventional ways, and the cells should be passed at least 2 generations before plating. Cells at the logarithmic growth phase were collected, prepared into single cell suspensions and counted. The concentration of cells was adjusted to the desired concentration, and cells were inoculated into a 96-well cell culture plate at 100 μl per well. 100 μL of complete medium of the test compound were added to each well, set up 2 duplicate wells for each concentration, and diluted with a 5-fold gradient, and continued to culture for 72 h. All cells were subjected to IC50 test for corresponding samples. The experimental results are shown in Test Example 4.
(§4) The fluorescence intensity of each well was detected using the Alarm blue method, and IC50 was calculated.
(§5) IC50 was calculated according to the following formula:
(§6) Y=Max+(Min−Max)/[1+(X/IC50)×Slope]
(§7) wherein Min, Max and Slope represent the minimum, maximum and slope respectively.
Consider `CC[C@@H]1C(=O)N(C)c2cnc(Nc3ccc(-c4cn([C@H]5CC[C@@H](N(C)CCOCCC#Cc6cccc7c6CN(C6CCC(=O)NC6=O)C7=O)CC5)nn4)cc3OC)nc2N1C1CCCC1` (stereo partly drawn) [UB-181045], for which the pIC50 is over 8.00.
Turning to `CC[C@@H]1C(=O)N(C)c2cnc(Nc3ccc(-c4cn([C@H]5CC[C@@H](N(CCO)CCOCCC#Cc6cccc7c6CN(C6CCC(=O)NC6=O)C7=O)CC5)nn4)cc3OC)nc2N1C1CCCC1` (stereo partly drawn) [UB-181052], the negative logarithm of the IC50 (pIC50) is 6.00 to 7.00.
The same measure, in the same setting: then `CC[C@@H]1C(=O)N(C)c2cnc(Nc3ccc(-c4cn([C@H]5CC[C@@H](N(CCOCCC#Cc6cccc7c6CN(C6CCC(=O)NC6=O)C7=O)C(=O)CO)CC5)nn4)cc3OC)nc2N1C1CCCC1` (stereo partly drawn) [UB-181063], with 6.00 to 7.00; and `CC[C@@H]1C(=O)N(C)c2cnc(Nc3ccc(-c4cn([C@H]5CC[C@@H](NCCCOCC#Cc6cccc7c6CN(C6CCC(=O)NC6=O)C7=O)CC5)nn4)cc3OC)nc2N1C1CCCC1` (stereo partly drawn) [UB-181089], with 7.00 to 8.00; and `CC[C@@H]1C(=O)N(C)c2cnc(Nc3ccc(NC(=O)N[C@H]4CC[C@H](NCCOCCC#Cc5cccc6c5CN(C5CCC(=O)NC5=O)C6=O)CC4)cc3)nc2N1C1CCCC1` (stereo partly drawn) [UB-181126], with 6.00 to 7.00.
On the same count and under the same terms, the value for `CC[C@@H]1C(=O)N(C)c2cnc(Nc3ccc(NC(=O)N[C@H]4CC[C@H](NCCOCCC#Cc5cccc6c5CN(C5CCC(=O)NC5=O)C6=O)CC4)cc3OC)nc2N1C1CCCC1` (stereo partly drawn) [UB-181130] was 6.00 to 7.00; that for `CC[C@@H]1C(=O)N(C)c2cnc(Nc3ccc(-c4cn([C@H]5CC[C@@H](NCCOCCC#Cc6cccc7c6CN(C6CCC(=O)NC6=O)C7=O)CC5)nn4)nc3)nc2N1C1CCCC1` (stereo partly drawn) [UB-181153] was 6.00 to 7.00.

Staying with this assay, now noted: MDA-MB-231 cells; read-out: Inhibitory activity IC50 on MDA-MB-231.
In the case of `CC[C@@H]1C(=O)N(C)c2cnc(Nc3ccc(C(=O)N[C@H]4CC[C@@H](NCCOCCC#Cc5cccc6c5CN([C@H]5CCC(=O)NC5=O)C6=O)CC4)cc3)nc2N1C1CCCC1` [UB-181179], the pIC50 was 7.00 to 8.00.

Another assay relates to PC-3. Description: Cell proliferation experiment, PC-3. The assay is classed as cell-based, human. Conditions: Homo sapiens, PC-3, PC-3 cells; read-out: Inhibitory activity IC50 on PC-3. The protocol: as §2, §3, §4, §5, §6, §7
Take `CC[C@@H]1C(=O)N(C)c2cnc(Nc3ccc(-c4cn([C@H]5CC[C@@H](N(C)CCOCCC#Cc6cccc7c6CN(C6CCC(=O)NC6=O)C7=O)CC5)nn4)cc3OC)nc2N1C1CCCC1` (stereo partly drawn) [UB-181045]: the pIC50 was 6.00 to 7.00.
On the same count and under the same terms, the value for `CC[C@@H]1C(=O)N(C)c2cnc(Nc3ccc(-c4cn([C@H]5CC[C@@H](N(CCO)CCOCCC#Cc6cccc7c6CN(C6CCC(=O)NC6=O)C7=O)CC5)nn4)cc3OC)nc2N1C1CCCC1` (stereo partly drawn) [UB-181052] was over 8.00; that for `CC[C@@H]1C(=O)N(C)c2cnc(Nc3ccc(-c4cn([C@H]5CC[C@@H](N(CCOCCC#Cc6cccc7c6CN(C6CCC(=O)NC6=O)C7=O)C(=O)CO)CC5)nn4)cc3OC)nc2N1C1CCCC1` (stereo partly drawn) [UB-181063] was 6.00 to 7.00; that for `CC[C@@H]1C(=O)N(C)c2cnc(Nc3ccc(-c4cn([C@H]5CC[C@@H](NCCCOCC#Cc6cccc7c6CN(C6CCC(=O)NC6=O)C7=O)CC5)nn4)cc3OC)nc2N1C1CCCC1` (stereo partly drawn) [UB-181089] was 7.00 to 8.00.
The same measure, in the same setting: then `CC[C@@H]1C(=O)N(C)c2cnc(Nc3ccc(NC(=O)N[C@H]4CC[C@H](NCCOCCC#Cc5cccc6c5CN(C5CCC(=O)NC5=O)C6=O)CC4)cc3)nc2N1C1CCCC1` (stereo partly drawn) [UB-181126], with 6.00 to 7.00; and `CC[C@@H]1C(=O)N(C)c2cnc(Nc3ccc(NC(=O)N[C@H]4CC[C@H](NCCOCCC#Cc5cccc6c5CN(C5CCC(=O)NC5=O)C6=O)CC4)cc3OC)nc2N1C1CCCC1` (stereo partly drawn) [UB-181130], with 6.00 to 7.00; and `CC[C@@H]1C(=O)N(C)c2cnc(Nc3ccc(-c4cn([C@H]5CC[C@@H](NCCOCCC#Cc6cccc7c6CN(C6CCC(=O)NC6=O)C7=O)CC5)nn4)nc3)nc2N1C1CCCC1` (stereo partly drawn) [UB-181153], with 6.00 to 7.00.
Still for that read-out and setting: then `NC(=O)c1ccccc1Nc1nc(Nc2ccc(C3CCN(C(=O)N[C@H]4CC[C@@H](NCCC#Cc5cccc6c5CN(C5CCC(=O)NC5=O)C6=O)CC4)CC3)cc2)ncc1Cl` (stereo partly drawn) [UB-181183], with 7.00 to 8.00.
Take `NC(=O)c1ccccc1Nc1nc(Nc2ccc(C3CCN(C(=O)NC4CCN(C5CN(CCC#Cc6ccc7c(c6)CN(C6CCC(=O)NC6=O)C7=O)C5)CC4)CC3)cc2)ncc1Cl` (stereo not drawn) [UB-181199]: the pIC50 was 7.00 to 8.00.
Same read-out and setting: then `NC(=O)c1ccccc1Nc1nc(Nc2ccc(N3CCN(C(=O)N[C@H]4CC[C@@H](NCC(O)CC#Cc5ccc6c(c5)CN(C5CCC(=O)NC5=O)C6=O)CC4)CC3)cc2)ncc1Cl` (stereo partly drawn) [UB-181203], with 6.00 to 7.00.
As for `NC(=O)c1ccccc1Nc1nc(Nc2ccc(C3CCN(C(=O)N[C@H]4CC[C@@H](NCCCCOCCC#Cc5ccc6c(c5)CN(C5CCC(=O)NC5=O)C6=O)CC4)CC3)cc2)ncc1Cl` (stereo partly drawn) [UB-181205], the pIC50 is 6.00 to 7.00.

Staying with this assay, now noted: PC-3 cells; read-out: Inhibitory activity IC50 on PC-3.
Consider `CC[C@@H]1C(=O)N(C)c2cnc(Nc3ccc(C(=O)N[C@H]4CC[C@@H](NCCOCCC#Cc5cccc6c5CN([C@H]5CCC(=O)NC5=O)C6=O)CC4)cc3)nc2N1C1CCCC1` [UB-181179], for which the negative-log IC50 (pIC50) is 7.00 to 8.00.

Another assay has as its system MV4;11 cells. In words: Cell proliferation experiment (Alamar blue, 72 h), MV4;11. The assay is classed as cell-based, human. Conditions: Homo sapiens, MV4-11, MV4;11 cells; read-out: Inhibitory activity IC50 on MV4;11. Put shortly:
as §1
Consider `CC[C@@H]1C(=O)N(C)c2cnc(Nc3ccc(-c4cn([C@H]5CC[C@@H](N(C)CCOCCC#Cc6cccc7c6CN(C6CCC(=O)NC6=O)C7=O)CC5)nn4)cc3OC)nc2N1C1CCCC1` (stereo partly drawn) [UB-181045], for which the negative logarithm of the IC50 (pIC50) is over 8.00.
The same measure, in the same setting: then `CC[C@@H]1C(=O)N(C)c2cnc(Nc3ccc(-c4cn([C@H]5CC[C@@H](N(CCO)CCOCCC#Cc6cccc7c6CN(C6CCC(=O)NC6=O)C7=O)CC5)nn4)cc3OC)nc2N1C1CCCC1` (stereo partly drawn) [UB-181052], with 7.00 to 8.00; and `CC[C@@H]1C(=O)N(C)c2cnc(Nc3ccc(-c4cn([C@H]5CC[C@@H](N(CCOCCC#Cc6cccc7c6CN(C6CCC(=O)NC6=O)C7=O)C(=O)CO)CC5)nn4)cc3OC)nc2N1C1CCCC1` (stereo partly drawn) [UB-181063], with over 8.00; and `CC[C@@H]1C(=O)N(C)c2cnc(Nc3ccc(-c4cn([C@H]5CC[C@@H](NCCCOCC#Cc6cccc7c6CN(C6CCC(=O)NC6=O)C7=O)CC5)nn4)cc3OC)nc2N1C1CCCC1` (stereo partly drawn) [UB-181089], with 7.00 to 8.00.
The same measure, in the same setting: then `CC[C@@H]1C(=O)N(C)c2cnc(Nc3ccc(NC(=O)N[C@H]4CC[C@H](NCCOCCC#Cc5cccc6c5CN(C5CCC(=O)NC5=O)C6=O)CC4)cc3)nc2N1C1CCCC1` (stereo partly drawn) [UB-181126], with over 8.00.
On the same count and under the same terms, the value for `CC[C@@H]1C(=O)N(C)c2cnc(Nc3ccc(NC(=O)N[C@H]4CC[C@H](NCCOCCC#Cc5cccc6c5CN(C5CCC(=O)NC5=O)C6=O)CC4)cc3OC)nc2N1C1CCCC1` (stereo partly drawn) [UB-181130] was over 8.00; that for `CC[C@@H]1C(=O)N(C)c2cnc(Nc3ccc(-c4cn([C@H]5CC[C@@H](NCCOCCC#Cc6cccc7c6CN(C6CCC(=O)NC6=O)C7=O)CC5)nn4)nc3)nc2N1C1CCCC1` (stereo partly drawn) [UB-181153] was 7.00 to 8.00; that for `NC(=O)c1ccccc1Nc1nc(Nc2ccc(C3CCN(C(=O)N[C@H]4CC[C@@H](NCCC#Cc5cccc6c5CN(C5CCC(=O)NC5=O)C6=O)CC4)CC3)cc2)ncc1Cl` (stereo partly drawn) [UB-181183] was over 8.00.

For a further assay, the system named is Daudi cells. In words: Cell proliferation experiment, Daudi. Format: cell-based, human. To be noted: Homo sapiens, Daudi, Daudi cells; read-out: Inhibitory activity IC50 on Daudi. Put shortly: as §1
As for `NC(=O)c1ccccc1Nc1nc(Nc2ccc(C3CCN(C(=O)N[C@H]4CC[C@@H](NCCC#Cc5cccc6c5CN(C5CCC(=O)NC5=O)C6=O)CC4)CC3)cc2)ncc1Cl` (stereo partly drawn) [UB-181183], the pIC50 was 7.00 to 8.00.
On the same count and under the same terms, the value for `NC(=O)c1ccccc1Nc1nc(Nc2ccc(C3CCN(C(=O)NC4CCN(C5CN(CCC#Cc6ccc7c(c6)CN(C6CCC(=O)NC6=O)C7=O)C5)CC4)CC3)cc2)ncc1Cl` (stereo not drawn) [UB-181199] was 7.00 to 8.00; that for `NC(=O)c1ccccc1Nc1nc(Nc2ccc(N3CCN(C(=O)N[C@H]4CC[C@@H](NCC(O)CC#Cc5ccc6c(c5)CN(C5CCC(=O)NC5=O)C6=O)CC4)CC3)cc2)ncc1Cl` (stereo partly drawn) [UB-181203] was 6.00 to 7.00; that for `NC(=O)c1ccccc1Nc1nc(Nc2ccc(C3CCN(C(=O)N[C@H]4CC[C@@H](NCCCCOCCC#Cc5ccc6c(c5)CN(C5CCC(=O)NC5=O)C6=O)CC4)CC3)cc2)ncc1Cl` (stereo partly drawn) [UB-181205] was 6.00 to 7.00.
